# Read-outs that look alike come from different tables or passages of the source.
# What was measured:
# FT-1 cells = assay: FT-1 cell photocytotoxicity; format: cell-based, human; conditions: for Photocytotoxicity FT-1, Red: Red light, concentration not given
# A549 = A549 photocytotoxicity (entries inside Table B cells); format: cell-based; conditions: A549 named inside the cell; concentration not given
# [1] = tested on: human colic adenocarcinoma cell line HT29; assay: HT29 cell survival (MTT assay) after 24 h incubation, with or without light irradiation
# Protocol: HT29 cells were cultivated in Dulbecco's MEM supplemented with 10% fetal calf serum (FCS). Cells from log-phase culture were seeded in 24-microwell plates (1 mL-5×10^4 cells/well) and kept at 37° C. in a water-jacketed incubator for 2 days under an air/CO2 atmosphere (5% CO2). Tested compounds, in DMSO solution, were added under the minimum volume (5 μL) to reach a concentration ranging from 0.1 to 10 μg/mL. Controls cells received 5 μL of DMSO free of dye. Plates were incubated 24 h, then medium was removed and the cells were washed twice with phosphate buffered saline (PBS) before addition of fresh medium free of drug and irradiation with visible light using a home made “light box” giving a fluence of 3.8 mW/cm^2 on the whole visible spectrum. Irradiation with red light was carried out using the same device fitted with an orange filter (0% T at 520 nm and 80% T at 590 nm) leading to a fluence of 2 mW/cm^2.
# Plates were reincubated for 3 days before evaluation of the cell survival using the MTT assay (T. Mosmann, “Rapid calorimetric assay for cellular growth and survival. Application to proliferation assays”. J. Immunol. Methods 65,55-63,1983) using 30 min incubation with 100 μg well of 3-[4,5-dimethylthiazol-2-yl]-2,5-diphenyl tetrazolium bromide (MTT, Sigma). After removal of the medium, formazan crystals were taken up with 100 μL of DMSO and absorbance at 540 ni was measured with a Bio-Rad microplate reader (model 450); survival was expressed as % of untreated controls.
# [2] = tested on: RBY-79 (indifferently named Y-79) cells; assay: RBY-79 (Y79) cell cytotoxicity / photocytotoxicity; conditions: for cytotoxic for Y79 (in words): without light, remark of the inventors; for RBY-79, concentration giving 50% with light or not: 50% effect
# Text: (§1) Columns HT29 and Y79 (═RBY79), without light, correspond to the cytotoxic activity.
# tumoral cells = assay: Antitumoral photodynamic activity in general (remarks on Tables B and C); format: cell-based, human; conditions: non glycosylated analogue compared with compound 67
# Text: The main results for antitumoral effects are reported in Table B, showing the rate of photocytotoxicity. The higher the percentage, the higher the antitumnoral or antiviral effect.
# Concerning the antitumoral activity, the compounds obtained by the inventors are active, under appropriate irradiation indicated towards tumoral cells in which these derivatives are able to accumulate.
# [3] = tested on: RBY-79 (indifferently named Y-79) cells
# Text: as §1
# L-1210 cells = assay: Cytotoxicity L-1210 (no light), cytostatic activity; format: cell-based, human; conditions: for Cytotoxicity L-1210 (no light), cell marked Red: cell prints 'Red', concentration not given
# Text: Column L1210 corresponds to the cytostatic activity.
# [4] = read-out: HT 29 IC50 (μM) with 2J/cm^2, irradiation with filter (0% T at 520 nm, 80% T at 590 nm), 3.5 mW/cm^2, 10 min
# [5] = read-out: HT 29 IC50 (μM) without light, without light (cytotoxic activity)
# [6] = read-out: Y79 IC50 (μM) With 2J/cm^2, irradiation with filter (0% T at 520 nm, 80% T at 590 nm), 3.5 mW/cm^2, 10 min
# [7] = read-out: Y79 IC50 (μM) without light, without light (cytotoxic activity)
# [8] = irradiation with filter (0% T at 520 nm, 80% T at 590 nm), 3.5 mW/cm^2, 10 min
Molecule,"Photocytotoxicity FT-1, Red (FT-1 cells)",Photocytotoxicity A549 (A549),"IC50 [1, 4]","IC50 [1, 5]","IC50 [2, 7]",further results
"5,10,15-Tri(3-O-β-D-glucosylphenyl)-2,3-chlorin and 5,10,15-tri(3-O-β-D-glucosylphenyl)-7,8-chlorin [Compound 55]",25%,"A549, 10%",5.7 ± 3 µM,> 15 µM,8 ± 7 µM,"Photocytotoxicity HT 29, Red ([1]; Red light, concentration not given): Red, 0%; IC50 [2, 6]: 3.7 ± 1.8 µM; cytotoxic for Y79 (in words) [2]: cytotoxic"
"5,10,15-tri(para-O-diethyleneglycoloxyphenyl)-20-phenylporphyrin [Compound 75]",,,4.3 µM,6.5 µM,4.5 µM,"biological activities (in words) (tumoral cells): totally inactive; IC50 [2, 6]: 1.2 µM"
OC[C@H]1O[C@H](Sc2c(F)c(F)c(-c3c4nc(c(-c5c(F)c(F)c(F)c(F)c5F)c5ccc([nH]5)c(-c5c(F)c(F)c(F)c(F)c5F)c5nc(c(-c6c(F)c(F)c(F)c(F)c6F)c6ccc3[nH]6)C=C5)C=C4)c(F)c2F)[C@@H](O)[C@@H](O)[C@@H]1O [Compound 30],,,,,,"Photocytotoxicity RBY-79, % at 2 μg/ml [3]: 90% 2 μg/ml"
OC[C@H]1O[C@@H](OCCOc2cccc(-c3c4nc(c(-c5cccc(OCCO[C@@H]6O[C@H](CO)[C@@H](O)[C@H](O)[C@H]6O)c5)c5ccc([nH]5)c(-c5cccc(OCCO[C@@H]6O[C@H](CO)[C@@H](O)[C@H](O)[C@H]6O)c5)c5nc(c(-c6cccc(OCCO[C@@H]7O[C@H](CO)[C@@H](O)[C@H](O)[C@H]7O)c6)c6ccc3[nH]6)CC5)C=C4)c2)[C@H](O)[C@@H](O)[C@@H]1O [Compound 58],Red 0%,,,,,"Cytotoxicity L-1210 (no light), cell marked Red (L-1210 cells): Red, 0, A549%"
OC[C@H]1O[C@@H](Oc2cccc(-c3c4nc(c(-c5cccc(O[C@@H]6O[C@H](CO)[C@@H](O)[C@H](O)[C@H]6O)c5)c5ccc([nH]5)c(-c5cccc(O[C@@H]6O[C@H](CO)[C@@H](O)[C@H](O)[C@H]6O)c5)c5nc(c(-c6ccccc6)c6ccc3[nH]6)C=C5)C=C4)c2)[C@H](O)[C@@H](O)[C@@H]1O [Compound 60],,"A549, 20%",,,,Photocytotoxicity FT-1 (FT-1 cells; concentration and light not given): 0%
OC[C@H]1O[C@@H](OCCOc2cccc(-c3c4nc(c(-c5cccc(OCCO[C@@H]6O[C@H](CO)[C@@H](O)[C@H](O)[C@H]6O)c5)c5ccc([nH]5)c(-c5cccc(OCCO[C@@H]6O[C@H](CO)[C@@H](O)[C@H](O)[C@H]6O)c5)c5nc(c(-c6cccc(OCCO[C@@H]7O[C@H](CO)[C@@H](O)[C@H](O)[C@H]7O)c6)c6ccc3[nH]6)C=C5)C=C4)c2)[C@H](O)[C@@H](O)[C@@H]1O [Compound 61],Red 0%,"A549, 0%",,,,"Cytotoxicity L-1210 (no light), cell marked Red (L-1210 cells): Red, 0%"
"O[C@@H]1[C@@H](O)[C@H](SCc2ccc(-c3c4nc(c(-c5ccc(CS[C@@H]6OC[C@@H](O)[C@H](O)[C@H]6O)cc5)c5ccc([nH]5)c(-c5ccc(CS[C@@H]6OC[C@@H](O)[C@H](O)[C@H]6O)cc5)c5nc(c(-c6ccc(CS[C@@H]7OC[C@@H](O)[C@H](O)[C@H]7O)cc6)c6ccc3[nH]6)C=C5)C=C4)cc2)OC[C@H]1O [Compound 64, TPP(p-CH2-S-β-XylOH)4]",,,4.5 µM,> 10 µM,3.8 µM,"Cytotoxicity L-1210 (no light), % at 10 μg/ml (L-1210 cells; 10 μg/ml, no light): 32%; Photocytotoxicity HT 29, % at 10 μg/ml ([1]; 10 μg/ml): 30% at; RBY-79, concentration giving 50% with light or not [2]: 50% at 7 μg/ml; Y79 IC50 (μM) With 2J/cm^2 [2, 8]: Inactive; cytotoxic for Y79 (in words) [2]: cytotoxic"
"OC[C@H]1O[C@@H](SCc2ccc(-c3c4nc(c(-c5ccc(CS[C@@H]6O[C@H](CO)[C@@H](O)[C@H](O)[C@H]6O)cc5)c5ccc([nH]5)c(-c5ccc(CS[C@@H]6O[C@H](CO)[C@@H](O)[C@H](O)[C@H]6O)cc5)c5nc(c(-c6ccc(CS[C@@H]7O[C@H](CO)[C@@H](O)[C@H](O)[C@H]7O)cc6)c6ccc3[nH]6)C=C5)C=C4)cc2)[C@H](O)[C@@H](O)[C@@H]1O [Compound 65, TPP(p-CH2-S-β-GluOH)4]",,,5.2 µM,> 10 µM,4.7 µM,"cytotoxic for Y79 (in words) [3]: cytotoxic; Cytotoxicity L-1210 (no light), % at 10 μg/ml (L-1210 cells): 16%; RBY-79, concentration giving 50% with light or not [2]: 50% at 5 μg/ml; Y79 IC50 (μM) With 2J/cm^2 [2, 8]: Inactive"

# From patent US7371742B2, “Porphyrin derivatives for photodynamic therapy” (Institut Curie, priority 2001, dated 2008)
